Laboratory results taken from US11168073B2, “3,3-difluoroallylamines or salts thereof and pharmaceutical compositions comprising the same” (YUHAN CORPORATION, priority 2018, dated 2021).
Counter-ions that a name gives are not always drawn.

Assays:
Format in all cases: biochemical
[1] = molecular target: T1, recombinant human VAP-1 (Homo sapiens, UniProt Q16853); assay: Activity evaluation on recombinant human VAP-1 (Amplex Red/HRP-coupled hydrogen peroxide assay, benzylamine substrate); conditions: recombinant human VAP-1, benzylamine substrate; read-out: Inhibitory Activity (IC50, nM) human VAP-1
T1 construct: purchased R&D systems
T1 sequence (Q16853 1-763): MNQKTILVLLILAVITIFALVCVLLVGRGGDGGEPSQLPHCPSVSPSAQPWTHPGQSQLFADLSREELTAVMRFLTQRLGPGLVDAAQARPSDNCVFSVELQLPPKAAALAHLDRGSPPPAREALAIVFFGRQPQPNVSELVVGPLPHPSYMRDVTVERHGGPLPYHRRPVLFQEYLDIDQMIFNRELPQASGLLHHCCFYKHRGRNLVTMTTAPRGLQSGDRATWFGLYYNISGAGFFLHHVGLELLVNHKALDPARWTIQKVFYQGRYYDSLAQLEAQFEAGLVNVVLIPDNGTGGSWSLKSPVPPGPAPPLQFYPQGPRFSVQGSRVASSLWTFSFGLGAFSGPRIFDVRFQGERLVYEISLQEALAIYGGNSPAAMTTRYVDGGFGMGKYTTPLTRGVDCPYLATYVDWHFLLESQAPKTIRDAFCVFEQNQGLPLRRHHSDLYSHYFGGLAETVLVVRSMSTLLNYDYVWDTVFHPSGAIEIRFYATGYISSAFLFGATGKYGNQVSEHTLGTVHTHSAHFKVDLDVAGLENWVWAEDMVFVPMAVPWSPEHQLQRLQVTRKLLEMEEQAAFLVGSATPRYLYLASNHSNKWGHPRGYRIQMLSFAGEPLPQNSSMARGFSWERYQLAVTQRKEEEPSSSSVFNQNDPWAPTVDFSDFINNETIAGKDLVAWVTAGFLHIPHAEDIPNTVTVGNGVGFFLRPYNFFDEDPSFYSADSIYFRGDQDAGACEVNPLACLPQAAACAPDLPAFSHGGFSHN
Procedure, shortened: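 Recombinant human VAP-1 in 50 mM sodium phosphate pH 7.4 preincubated 30 min at 37 °C with compound (8-point 1:3 series, <1% DMSO), then 1 mM benzylamine, 200 uM Amplex Red, 1 U/mL HRP added. H2O2-derived resorufin fluorescence (ex 544/em 590) followed 1–2 h; IC50 from four-parameter fit of rate inhibition.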

[2] = molecular target: T2, recombinant human MAO-A (monoamine oxidase-A) (Homo sapiens, UniProt P21397); assay: Activity evaluation on recombinant human MAO-A (Amplex Red/HRP-coupled assay, 0.5 mM tyramine substrate); conditions: 0.5 mM tyramine substrate, read-out: Inhibitory Activity (IC50, nM) MAO-A
T2 construct: purchased Sigma-Aldrich
T2 sequence (P21397 1-527): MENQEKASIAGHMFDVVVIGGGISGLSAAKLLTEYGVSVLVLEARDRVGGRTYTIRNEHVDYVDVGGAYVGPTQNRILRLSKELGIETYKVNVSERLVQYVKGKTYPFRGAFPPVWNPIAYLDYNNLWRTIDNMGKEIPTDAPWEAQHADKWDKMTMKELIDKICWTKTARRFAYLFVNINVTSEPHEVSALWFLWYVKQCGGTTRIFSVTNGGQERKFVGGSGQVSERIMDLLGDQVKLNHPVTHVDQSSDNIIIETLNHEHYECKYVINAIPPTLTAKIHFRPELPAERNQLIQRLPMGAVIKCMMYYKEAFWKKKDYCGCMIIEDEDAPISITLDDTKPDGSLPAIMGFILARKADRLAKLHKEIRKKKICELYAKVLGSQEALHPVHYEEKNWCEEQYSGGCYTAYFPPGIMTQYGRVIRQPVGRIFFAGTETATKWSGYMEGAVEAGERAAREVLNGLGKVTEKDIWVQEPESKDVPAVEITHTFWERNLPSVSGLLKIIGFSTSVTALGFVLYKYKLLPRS
Procedure, shortened: (§1)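 Enzyme activity was measured as fluorescence rate (ex 544, em 590 nm) from resorufin formed by HRP-coupled H2O2 oxidation of 200 uM Amplex Red. Compounds were first incubated 30 min at 37 °C with enzyme at pH 7.4; substrates were 0.5 mM tyramine (MAO-A), 1 mM benzylamine (MAO-B) and 1 mM putrescine (DAO).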

[3] = molecular target: T3, recombinant human MAO-B (monoamine oxidase-B) (Homo sapiens, UniProt P27338); assay: Activity evaluation on recombinant human MAO-B (Amplex Red/HRP-coupled assay, 1 mM benzylamine substrate); conditions: 1 mM benzylamine substrate, read-out: Inhibitory Activity (IC50, nM) MAO-B
T3 construct: purchased Sigma-Aldrich
T3 sequence (P27338 1-520): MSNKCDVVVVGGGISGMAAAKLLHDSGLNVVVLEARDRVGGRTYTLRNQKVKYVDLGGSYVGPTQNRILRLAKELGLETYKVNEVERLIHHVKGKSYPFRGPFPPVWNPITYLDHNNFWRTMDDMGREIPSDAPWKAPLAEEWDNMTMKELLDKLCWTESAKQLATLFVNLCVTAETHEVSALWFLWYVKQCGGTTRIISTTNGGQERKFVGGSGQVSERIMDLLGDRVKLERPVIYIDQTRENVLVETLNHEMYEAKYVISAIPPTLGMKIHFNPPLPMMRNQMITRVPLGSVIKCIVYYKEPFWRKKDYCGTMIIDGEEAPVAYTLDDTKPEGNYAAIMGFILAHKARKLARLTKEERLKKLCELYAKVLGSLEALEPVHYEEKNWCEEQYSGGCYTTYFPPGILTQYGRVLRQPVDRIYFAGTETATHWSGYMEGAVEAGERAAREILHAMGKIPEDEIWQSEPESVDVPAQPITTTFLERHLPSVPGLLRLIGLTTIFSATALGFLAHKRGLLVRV
Procedure, shortened: as §1

[4] = molecular target: T4, recombinant human DAO (diamine oxidase) (Homo sapiens, UniProt P19801); assay: Activity evaluation on recombinant human DAO (Amplex Red/HRP-coupled assay, 1 mM putrescine substrate); conditions: 1 mM putrescine substrate, read-out: Inhibitory Activity (IC50, nM) DAO
T4 construct: purchased R&D systems
T4 sequence (P19801 20-751): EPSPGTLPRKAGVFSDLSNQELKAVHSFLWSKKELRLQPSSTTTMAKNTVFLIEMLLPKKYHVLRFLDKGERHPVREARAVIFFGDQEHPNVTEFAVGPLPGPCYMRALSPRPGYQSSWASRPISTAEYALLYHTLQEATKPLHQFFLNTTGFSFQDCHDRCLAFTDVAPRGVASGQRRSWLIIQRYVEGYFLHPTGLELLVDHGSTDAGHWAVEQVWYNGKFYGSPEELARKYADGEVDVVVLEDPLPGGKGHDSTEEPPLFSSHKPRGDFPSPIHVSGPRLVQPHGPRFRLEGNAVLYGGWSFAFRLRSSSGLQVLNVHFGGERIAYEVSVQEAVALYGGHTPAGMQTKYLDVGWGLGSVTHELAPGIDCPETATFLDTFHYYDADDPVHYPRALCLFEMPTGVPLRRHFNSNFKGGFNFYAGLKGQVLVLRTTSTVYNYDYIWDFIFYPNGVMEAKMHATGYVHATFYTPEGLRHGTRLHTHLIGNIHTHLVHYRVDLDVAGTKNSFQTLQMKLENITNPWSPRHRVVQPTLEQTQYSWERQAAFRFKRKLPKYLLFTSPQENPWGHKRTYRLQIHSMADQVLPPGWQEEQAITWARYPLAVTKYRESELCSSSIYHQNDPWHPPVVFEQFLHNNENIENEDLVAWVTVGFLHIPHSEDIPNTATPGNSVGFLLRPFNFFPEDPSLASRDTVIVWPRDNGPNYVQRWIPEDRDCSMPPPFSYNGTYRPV
Procedure, shortened: as §1

SMILES	IC50 [1] [nM]	IC50 [2] [nM]	IC50 [3] [nM]	IC50 [4] [nM]
CCn1cc(-c2cccc(-c3cnc(-n4cnn(CC(CN)=C(F)F)c4=O)c(C)c3)c2)cn1 [Example 291, 2-[2-(aminomethyl)-3,3-difluoro-allyl]-4-[5-[3-(1-ethylpyrazol-4-yl)phenyl]-3-methyl-2-pyridyl]-1,2,4-triazol-3-one Trifluoroacetate]	0.6	> 100000	3450	6160
NCC(Cn1ncn(Cc2ccc(-c3cn[nH]c3)s2)c1=O)=C(F)F [Example 292, 2-[2-(aminomethyl)-3,3-difluoro-allyl]-4-[[5-(1H-pyrazol-4-yl)-2-thienyl]methyl]-1,2,4-triazol-3-one Trifluoroacetate]	2.7	86200	> 100000	> 100000
CS(=O)(=O)n1cc(-c2ccc(Cn3cnn(CC(CN)=C(F)F)c3=O)s2)cn1 [Example 293, 2-[2-(aminomethyl)-3,3-difluoro-allyl]-4-[[5-(1-methylsulfonylpyrazol-4-yl)-2-thienyl]methyl]-1,2,4-triazol-3-one Trifluoroacetate]	2.4	> 100000	> 100000	25300
NCC(Cn1ncn(Cc2ccc(-c3cnn(S(=O)(=O)C4CC4)c3)s2)c1=O)=C(F)F [Example 294, 2-[2-(aminomethyl)-3,3-difluoro-allyl]-4-[[5-(1-cyclopropylsulfonylpyrazol-4-yl)-2-thienyl]methyl]-1,2,4-triazol-3-one Trifluoroacetate]	2.9	> 100000	> 100000	5380
NCC(Cn1ncn(Cc2ccc(-c3cnn(CC4CC4)c3)s2)c1=O)=C(F)F [Example 295, 2-[2-(aminomethyl)-3,3-difluoro-allyl]-4-[[5-[1-(cyclopropylmethyl)pyrazol-4-yl]-2-thienyl]methyl]-1,2,4-triazol-3-one Trifluoroacetate]	0.3	> 100000	> 100000	> 100000
Cn1cc(-c2ccc(Cn3cnn(CC(CN)=C(F)F)c3=O)s2)cn1 [Example 296, 2-[2-(aminomethyl)-3,3-difluoro-allyl]-4-[[5-(1-methylpyrazol-4-yl)-2-thienyl]methyl]-1,2,4-triazol-3-one Trifluoroacetate]	1	> 100000	> 100000	> 100000
NCC(Cn1ncn(Cc2ccc(-c3cnn(Cc4ccccc4)c3)s2)c1=O)=C(F)F [Example 297, 2-[2-(aminomethyl)-3,3-difluoro-allyl]-4-[[5-(1-benzylpyrazol-4-yl)-2-thienyl]methyl]-1,2,4-triazol-3-one Trifluoroacetate]	1.9	> 100000	> 100000	14800

Results, then the compound that gave them:

IC50 [1] [nM]	IC50 [2] [nM]	IC50 [3] [nM]	IC50 [4] [nM]	SMILES
12	> 100000	> 100000	0.2	NCC(Cn1ncn(Cc2sc(-c3ccc(N4CCNCC4)cc3)cc2F)c1=O)=C(F)F [Example 298, 2-[2-(aminomethyl)-3,3-difluoro-allyl]-4-[[3-fluoro-5-(4-piperazin-1-ylphenyl)-2-thienyl]methyl]-1,2,4-triazol-3-one ditrifluoroacetate]
1.4	> 100000	> 100000	9680	CCn1cc(-c2cc(F)c(Cn3cnn(CC(CN)=C(F)F)c3=O)s2)ccc1=O [Example 299, 5-[5-[[1-[2-(aminomethyl)-3,3-difluoro-allyl]-5-oxo-1,2,4-triazol-4-yl]methyl]-4-fluoro-2-thienyl]-1-ethyl-pyridin-2-one Trifluoroacetate]
1.7	> 100000	11100	25300	NCC(Cn1ncn(Cc2sc(-c3ccc4c(c3)OCO4)cc2F)c1=O)=C(F)F [Example 300, 2-[2-(aminomethyl)-3,3-difluoro-allyl]-4-[[5-(1,3-benzodioxol-5-yl)-3-fluoro-2-thienyl]methyl]-1,2,4-triazol-3-one Trifluoroacetate]
0.5	> 100000	> 100000	2680	CN1C(=O)CCc2cc(-c3cc(F)c(Cn4cnn(CC(CN)=C(F)F)c4=O)s3)ccc21 [Example 301, 6-[5-[[1-[2-(aminomethyl)-3,3-difluoro-allyl]-5-oxo-1,2,4-triazol-4-yl]methyl]-4-fluoro-2-thienyl]-1-methyl-3,4-dihydroquinolin-2-one trifluoroacetate]
1.1	> 100000	> 100000	19500	CCn1cc(-c2cc(F)c(Cn3cnn(CC(CN)=C(F)F)c3=O)s2)cn1 [Example 302, 2-[2-(aminomethyl)-3,3-difluoro-allyl]-4-[[5-(1-ethylpyrazol-4-yl)-3-fluoro-2-thienyl]methyl]-1,2,4-triazol-3-one Trifluoroacetate]
0.8	> 100000	> 100000	> 100000	CN(C)c1ccc(-c2cc(F)c(Cn3cnn(CC(CN)=C(F)F)c3=O)s2)cn1 [Example 303, 2-(2-(aminomethyl)-3,3-difluoroallyl)-4-((5-(6-(dimethylamino)pyridin-3-yl)-3-fluorothiophen-2-yl)methyl)-2,4-dihydro-3H-1,2,4-triazol-3-one trifluoroacetate]
